From US20130005696A1, “BUFADIENOLIDE DERIVATIVES, PREPARING PROCESS THEREOF, COMPOSITION COMPRISING THE SAME AND THE USE THEREOF” (priority 2011, published 2013)

How the values were obtained:
[1] = system: MDA-MB-231 human breast carcinoma cell line; experiment: In vitro antitumor activity assay (SRB), MDA-MB-231; type: cell-based; conditions: Homo sapiens; MDA-MB-231, 72 h, Table 3
Text: (§1) HeLa human cervical carcinoma cell line, A-549 human non-small cell lung carcinoma cell line, NCI-H2228 human lung carcinoma cell line, NCI-H460 human lung carcinoma cell line, MDA-MB-231 human breast carcinoma cell line, MCF-7 human breast carcinoma cell line, Bel-7402 human hepatic carcinoma cell line, Hep3B human hepatic carcinoma cell line, QGY-7703 human hepatic carcinoma cell line, MV-4-11 human leukemic cell line, DAUDI human leukemic cell line, Jurkat human leukemic cell line, A498 renal carcinoma cell line, LoVo human colon carcinoma cell line, HCT1116 human colon carcinoma cell line, A431 human skin carcinoma cell line, PANC-1 human pancreatic carcinoma cell line, U87-MG human brain carcinoma cell line, SH-SY5Y human brain carcinoma cell line, RPMI-8226 human bone carcinoma cell line, HT1080 human fibrosarcoma cell line, PC-3 human prostatic carcinoma cell line, AGS human gastric adenocarcinoma cell line, and BGC-823 human gastric adenocarcinoma cell line were purchased from the Cell Bank of the Chinese Academy of Sciences.
(§2) The positive control is bufalin (formulated according to the common method), its purity is 98% or more by HPLC-UV and its structure is identified by NMR. The compounds to be tested and the positive control were diluted with normal saline with a concentration gradient of 10^−4 M, 10^−5 M, 10^−6 M, 10^−7 M and 10^−8 M.
(§3) According to cell growth rate, tumor cells in the log phase of growth were seeded into 96-well culture plates at 100 μL per well, and allowed to attach for 24 hours, followed by addition of a test compound or positive control at 10 μL per well. For each concentration, the test was carried out in triplicate wells. […] Finally, Tris solution was added at 150 μL per well, and the absorbance (A) was measured at a wavelength of 515 nm using a microplate reader. The growth inhibition on tumor cell proliferation was calculated according to the following equation:
(§4) Growth Inhibition (%)=[(Absorbance of negative control−Absorbance of blank)−(Absorbance of sample−Absorbance of blank)]/(Absorbance of negative control−Absorbance of blank)×100% […]

[2] = system: PANC-1 human pancreatic carcinoma cell line; experiment: In vitro antitumor activity assay (SRB), PANC-1; type: cell-based; conditions: Homo sapiens; PANC-1, 72 h, Table 3
Text: as §1, §2, §3, §4

[3] = system: Jurkat human leukemic cell line; experiment: In vitro antitumor activity assay (SRB), Jurkat; type: cell-based; conditions: Homo sapiens, 72 h, Table 3
Text: as §1, §2, §3, §4

[4] = system: AGS human gastric adenocarcinoma cell line; experiment: In vitro antitumor activity assay (SRB), AGS; type: cell-based; conditions: Homo sapiens, 72 h, Table 3
Text: as §1, §2, §3, §4

[5] = system: A498 renal carcinoma cell line; experiment: In vitro antitumor activity assay (SRB), A498; type: cell-based, human; conditions: Homo sapiens; A498, 72 h, Table 3
Text: as §1, §2, §3, §4

[6] = system: A431 human skin carcinoma cell line; experiment: In vitro antitumor activity assay (SRB), A431; type: cell-based; conditions: Homo sapiens, A-431; A431, 72 h, Table 3
Text: as §1, §2, §3, §4

[7] = system: A-549 human non-small cell lung carcinoma cell line; experiment: In vitro antitumor activity assay (SRB), A549; type: cell-based; conditions: Homo sapiens; A549, 72 h, Table 3; read-out: IC50 (72 h), A549
Text: as §1, §2
(§5) According to cell growth rate, tumor cells in the log phase of growth were seeded into 96-well culture plates at 100 μL per well, and allowed to attach for 24 hours, followed by addition of a test compound or positive control at 10 μL per well. For each concentration, the test was carried out in triplicate wells. Solvent control wells with addition of normal saline into cell culture and a blank well containing only cell culture medium but without cells for zeroing were also included. The tumor cells were incubated for 72 hours at 37° C. under 5% CO2, and then the culture medium (RPMI-1640) was removed. The cells were fixed with 10% cool TCA by incubating for 1 h at 4° C., washed with distilled water for 5 times, and dried naturally in the air. A solution of SRB (Sigma) (4 mg/mL) in 1% glacial acetic acid was added at 100 μL per well, and the cells were stained for 15 minutes at room temperature, and the supernatant was discarded. The plates were washed for 5 times with 1% acetic acid, and dried in air. Finally, Tris solution was added at 150 μL per well, and the absorbance (A) was measured at a wavelength of 515 nm using a microplate reader. The growth inhibition on tumor cell proliferation was calculated according to the following equation:
(§6) Growth Inhibition (%)=[(Absorbance of negative control−Absorbance of blank)−(Absorbance of sample−Absorbance of blank)]/(Absorbance of negative control−Absorbance of blank)×100%
(§7) Drug concentration: 10 μM, 1 μM, 0.1 μM, 10 nM, 1 nM, 0.1 nM.
(§8) IC50 was fitted by GraphPad Prism 4.

[8] = system: MV-4-11 human leukemic cell line; experiment: In vitro antitumor activity assay (SRB), MV-4-11; type: cell-based; conditions: Homo sapiens, MV4-11; MV-4-11, 72 h, Table 3
Text: as §1, §2, §3, §4

[9] = system: U87-MG human brain carcinoma cell line; experiment: In vitro antitumor activity assay (SRB), U87-MG; type: cell-based; conditions: Homo sapiens, U-87 MG, 72 h, Table 3
Text: as §1, §2, §3, §4

[10] = system: DAUDI human leukemic cell line; experiment: In vitro antitumor activity assay (SRB), Daudi; type: cell-based; conditions: Homo sapiens, 72 h, Table 3
Text: as §1, §2, §3, §4

[11] = system: RPMI-8226 human bone carcinoma cell line; experiment: In vitro antitumor activity assay (SRB), RPMI8226; type: cell-based; conditions: Homo sapiens, RPMI-8226; RPMI8226, 72 h, Table 3
Text: as §1, §2, §3, §4

[12] = system: HT1080 human fibrosarcoma cell line; experiment: In vitro antitumor activity assay (SRB), HT1080; type: cell-based; conditions: Homo sapiens, HT-1080; HT1080, 72 h, Table 3
Text: as §1, §2, §3, §4

[13] = system: QGY-7703 human hepatic carcinoma cell line; experiment: In vitro antitumor activity assay (SRB), QGY7703; type: cell-based; conditions: Homo sapiens, QGY-7703; QGY7703, 72 h, Table 3
Text: as §1, §2, §3, §4

[14] = system: Hep3B human hepatic carcinoma cell line; experiment: In vitro antitumor activity assay (SRB), Hep3B; type: cell-based; conditions: Homo sapiens, 72 h, Table 3
Text: as §1, §2, §3, §4

[15] = system: HCT-116 human-derived tumor cell line; experiment: In vitro antitumor activity assay (SRB), HCT-116; type: cell-based; conditions: Homo sapiens; HCT-116, 72 h, Table 3
Text: as §1, §2, §3, §4

[16] = system: MCF-7 human breast carcinoma cell line; experiment: In vitro antitumor activity assay (SRB), MCF-7; type: cell-based; conditions: Homo sapiens, MCF7; MCF-7, 72 h, Table 3; read-out: IC50 (72 h), MCF-7
Text: as §1, §2, §5, §6, §7, §8

[17] = system: NCI-H2228 human lung carcinoma cell line; experiment: In vitro antitumor activity assay (SRB), NCI-H2228; type: cell-based; conditions: Homo sapiens; NCI-H2228, 72 h, Table 3
Text: as §1, §2, §3, §4

[18] = system: BGC-823 human gastric adenocarcinoma cell line; experiment: In vitro antitumor activity assay (SRB), BGC-823; type: cell-based; conditions: Homo sapiens; BGC-823, 72 h, Table 3
Text: as §1, §2, §3, §4

[19] = system: HepG2 human-derived tumor cell line; experiment: In vitro antitumor activity assay (SRB), HepG2; type: cell-based; conditions: Homo sapiens; HepG2, 72 h, Table 3
[20] = system: PC-3 human prostatic carcinoma cell line; experiment: In vitro antitumor activity assay (SRB), PC-3; type: cell-based; conditions: Homo sapiens, Prostatic carcinoma cell; PC-3, 72 h, Table 3; read-out: IC50 (72 h), PC-3
Text: as §1, §2, §5, §6, §7, §8

[21] = system: NCI-H460 human lung carcinoma cell line; experiment: In vitro antitumor activity assay (SRB), NCI-H460; type: cell-based; conditions: Homo sapiens; NCI-H460, 72 h, Table 3
Text: as §1, §2, §3, §4

[22] = system: HeLa human cervical carcinoma cell line; experiment: In vitro antitumor activity assay (SRB), HeLa; type: cell-based; conditions: read-out: IC50, inhibitory activity on cell proliferation of HeLa cell line
Text: as §1, §2, §5, §6, §7, §8

C[C@]12CC[C@H](OC(=O)NC3CCNCC3)C[C@H]1CC[C@@H]1[C@@H]2CC[C@]2(C)[C@@H](c3ccc(=O)oc3)CC[C@]12O [II1E-01]
IC50 [1]: 7.46 ± 0.33 nM | IC50 [2]: 0.72 ± 0.19 nM | IC50 [3]: 1.09 ± 0.26 nM | IC50 [4]: 9.62 ± 0.69 nM | IC50 [5]: 0.4 ± 0.03 nM | IC50 [6]: 2.62 ± 0.19 nM | IC50 [7]: 0.77 ± 0.28 nM | IC50 [8]: 1.12 ± 0.29 nM | IC50 [9]: 1.28 ± 0.36 nM | IC50 [10]: 2.86 ± 0.21 nM | IC50 [11]: 1.53 ± 0.1 nM | IC50 [12]: 2.9 ± 0.33 nM | IC50 [13]: 1.11 ± 0.08 nM | IC50 [14]: > 1000 nM | IC50 [15]: 2.91 ± 0.09 nM | IC50 [16]: 9.97 ± 1.45 nM | IC50 [17]: 2.5 ± 0.34 nM | IC50 [18]: 0.81 ± 0.07 nM | IC50 [19]: 0.51 ± 0.04 nM | IC50 [20]: 0.41 ± 0.1 nM | IC50 [21]: 0.56 ± 0.05 nM | IC50 [22]: 1.4 nM
